The values that follow come from patent US5877202A, “Indole derivatives useful to treat estrogen-related neoplasms and disorders” (priority 1996, dated 1999).

Data set [1] relates to MCF-7 human breast tumor cells. The data set is described as follows: Clonigenic assay for MCF-7 human breast tumor cells. It counts as cell-based. The conditions noted are these: for Colonies ± S.D.: 24 hours treatment, grown 22 days. The method, then:
MCF-7 cells (10^7) are added to 100 mm tissue culture dishes, allowed to adhere for 24 hours and then treated with either MDL 101,906 or ICI 164,384 for 24 hours. The cells are removed from the dishes with trypsin/EDTA, and washed twice by centrifugation. The cells were counted and 500 cells from each treatment group are added to triplicate wells of 6-well culture dishes. The cells are grown for 22 days. Colonies 1 mm diameter or greater are counted.

In data set [2] the test system is mouse estrogen receptor. The conditions noted are these: Fawell, S. E., et al. (1990); cited from earlier work.
Data set [3] concerns the target T1, MCF-7 estrogen receptor (Homo sapiens, UniProt P03372).
T1 construct: estrogen receptor extracted from MCF-7 human breast tumor cells; endogenous in cells; host or cells: MCF-7 human breast cancer cells (nuclear extract, cytosol or whole cell extract)
T1 sequence (P03372 1-595): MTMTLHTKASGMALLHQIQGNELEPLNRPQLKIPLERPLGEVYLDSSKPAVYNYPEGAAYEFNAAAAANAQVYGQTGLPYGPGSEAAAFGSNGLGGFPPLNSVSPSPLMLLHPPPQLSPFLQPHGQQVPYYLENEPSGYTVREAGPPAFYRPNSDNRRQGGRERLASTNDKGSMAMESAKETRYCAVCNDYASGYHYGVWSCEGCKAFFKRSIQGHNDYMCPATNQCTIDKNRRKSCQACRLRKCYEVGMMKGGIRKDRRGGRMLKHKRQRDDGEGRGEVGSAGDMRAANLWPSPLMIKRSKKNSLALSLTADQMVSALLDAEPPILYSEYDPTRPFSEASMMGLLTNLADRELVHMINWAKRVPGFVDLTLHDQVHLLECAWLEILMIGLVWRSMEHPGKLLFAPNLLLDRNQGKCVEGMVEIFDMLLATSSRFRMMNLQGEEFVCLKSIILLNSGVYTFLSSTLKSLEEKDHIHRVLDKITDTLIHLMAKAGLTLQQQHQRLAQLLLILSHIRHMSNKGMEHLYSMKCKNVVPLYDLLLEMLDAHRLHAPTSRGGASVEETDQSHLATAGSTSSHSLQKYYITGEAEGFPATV
The experiment in a line: Competitive binding assay, Relative Binding Affinities on binding of estradiol to MCF-7 estrogen receptor. The method, then: Briefly, RBAs are determined from competitive binding assays with several concentrations of estradiol (E2) with and without test compound. After 16-18 hours of incubation at 4 degrees C., unbound [^3 H] E2 is separated from ER-bound [^3 H] E2. The IC50 is determined and the RBA is calculated as: […]

For data set [4], the system named is GAPDH mRNA. The experiment in a line: GAPDH mRNA levels in treated MCF-7 human breast tumor cells (positive control probe).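 Also: Phosphoimager intensity of radioactive mRNA bands.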 The class given is cell-based. The conditions noted are these: 30 μM, 24 hr. Here is the method:
(§1) After treatment with 30 μM drug for 24 hr, total RNA is isolated according to the guanidinium isothiocyanate method using an RNA preparation kit from 5 Prime-3 Prime, Inc., following the manufacturer's instructions. The RNA is separated by formaldehyde gel electrophoresis and transferred to a nylon membrane.

The target in data set [5] is T2, estrogen receptor binding to an estrogen response element (Homo sapiens, UniProt P03372).
T2 construct: estrogen receptor extracted from MCF-7 human breast tumor cells; endogenous in cells; host or cells: MCF-7 human breast cancer cells (nuclear extract, cytosol or whole cell extract)
T2 sequence (P03372 1-595): T1 sequence (P03372 1-595)
The data set is described as follows: Inhibition of estrogen receptor binding to an estrogen response element in DNA mobility shift assays. The class given is biochemical, human (nuclear extract of MCF-7 human breast cancer cells). The method, then: (§2) Monolayers of MCF-7 human breast cancer cells are rinsed once with HBSS and scraped off culture dishes into 15 ml conical tubes with 5 ml HBSS. The cells are sedimented by centrifugation at 250×g for five minutes, suspended in 1 ml HBSS and sedimented by centrifugation at 2000 rpm in a tabletop centrifuge for five minutes in a 1.5 ml microfuge tube. Two PCV of a solution of a lysis buffer (25 mM HEPES, pH 7.8, 50 mM KCl, 0.5% Nonidet P 40, 2 mM dithiothreitol, 0.2 mM phenylmethylsulfonyl fluoride, 0.05 mg/ml leupeptin, 0.05 mg/ml aprotinin, 0.0025 mg/ml pepstatin, 0.005 mg/ml antipain) are added and cells are kept on ice for 15 minutes. Lysed cells are centrifuged for 3 minutes at 10,000×g, supernatant decanted, and kept as the cytosol fraction. Pellets are suspended in two PCV of extraction buffer (25 mM HEPES, pH 7.8, 500 mM KCl, 10% glycerol, 2 mM dithiothreitol and the above protease inhibitors), mixed for 20 minutes by inversion at 4 degrees C. and centrifuged at 10,000×g for 20 minutes. The supernatant is decanted and saved as nuclear extract. Both the nuclear extract and the cytosol are dialyzed for two hours against dialysis buffer (25 mM HEPES, pH 7.8, 50 mM KCl, 10% glycerol, 2 mM dithiothreitol and the above protease inhibitors). Nuclear and cytosol fractions are stored frozen at -80 degrees C. until used for mobility shift assays or determination of estrogen receptor content.
Briefly, to each reaction tube was added 0.01 mg nuclear extract, 2 μg poly dIdC, 50 mM NaCl, 1 mM dithiothreitol and 10 mM Tris, pH 7.5 in a total volume of 0.01 ml and the mixture was kept at room temperature for 10 minutes. A ^32 P-labelled estrogen response element [ERE]

Data set [6] deals with T3, estrogen receptors (Homo sapiens, UniProt P03372).
T3 construct: estrogen receptor extracted from MCF-7 human breast tumor cells; endogenous in cells; host or cells: MCF-7 human breast cancer cells (nuclear extract, cytosol or whole cell extract)
T3 sequence (P03372 1-595): T1 sequence (P03372 1-595)
The experiment in a line: Quantification of estrogen receptors in nuclear and whole cell extracts (ER-EIA monoclonal kit), Table 1. It counts as cell-based, human (MCF-7 human breast cancer cells). The following applies: estrogen receptors in nuclear extracts. The method, then: as §2
Whole cell extracts of tumor cells are prepared by the method of Reese and Katzenellenbogen, Nuc. Acids Res., 19: 6595-6602 (1991), with some modifications. Cell monolayers are rinsed once with HBSS, then scraped into HBSS and sedimented by centrifugation (5 min., 250×g). After resuspending in 1 mL HBSS, the cells are again sedimented at 250×g for 5 min at 4° C. The cell pellet is resuspended in lysis/extract buffer containing 20 mM Tris, pH 7.5, 10% glycerol (v/v), 0.5M sodium chloride and 0.5% NP-40 (v/v) and incubated on ice for 25 minutes, then the supernatants are dialyzed against 25 mM HEPES, pH 7.8, 10% glycerol (v/v), 0.5 mM dithiothreitol and 50 mM potassium chloride for 2 hours at 4° C. Both the lysis/extraction and the dialysis buffers contain protease inhibitors which included 0.5 mM phenylmethylsulfonylfluoride, 0.05 mg/mL leupeptin, 0.05 mg/mL aprotinin, 0.00-25 mg/mL pepstatin, and 0.005 mg/mL antipain. Dialyzed whole cell extracts are stored in aliquots at -80° C. until used.
The protein concentration for nucleus and cytosol fractions are determined with a BIO-RAD kit, according to the manufacturer's instructions.
Estrogen receptor levels in nuclear and whole cell extracts of tumor cells were quanitated using the ER-EIA monoclonal kit manufactured by Abbott Laboratories (Diagnostic Division) according to the kit instructions.
receptors in nuclear extracts.
.dagger.WCE refers to IC50 value for estrogen receptors in whole cel
A slash dividing two numbers indicates the results of two separate

Data set [7] relates to estrogen receptor mRNA. The experiment in a line: Reduction of estrogen receptor mRNA levels in treated MCF-7 human breast tumor cells.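 As to Estrogen Receptor mRNA band intensity: Phosphoimager intensity of radioactive mRNA bands.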 The class given is cell-based. The method, then: as §1
Data set [8] has as its system hormone-dependent breast cancer. The conditions noted are these: cited from earlier work.
The mark [9] stands for this setting: read-out: integrated volume of shifted ERE oligo as percentage of control, given as % inhibition.

SMILES strings stand for the structures. Several values for one entry are separate records, joined by “and”; a condition that tells them apart may be missing. Equal entries are not always repeated.

With `CCCCN(C)C(=O)CCCCCCCCCC[C@@H]1Cc2cc(O)ccc2[C@H]2CC[C@]3(C)[C@@H](O)CC[C@H]3[C@H]12` [ICI 164,384, 11-(3-17β-dihydroxyoestra-1,3,-5(10)-trien-7α-yl)-N-n-butyl-N-methylundecanamide, reference compound], the “Colonies ± S.D.” value came to 48 ± 6 in data set [1] (0.1 μM) and 40 ± 2 in data set [1] (1.0 μM). In addition, the activity at 0.1 µM in data set [1] (Homo sapiens, MCF7, 528 h, 0.1 μM, read-out: Colonies, % Control) amounted to 145%. Also, the activity at 1 µM in data set [1] (Homo sapiens, MCF7, 528 h, 1.0 μM, read-out: Colonies, % Control) is 121%. For the same compound, the “inhibition of DNA binding of the mouse estrogen receptor” value in data set [2] is “inhibit DNA binding of the mouse estrogen receptor by interfering with receptor dimerization”.
One may read the IC50 as the concentration needed to halve the response being measured. In the case of `CCCCN(C)C(=O)CCCCCCCNC(=O)Cc1c(-c2ccc(O)cc2)n(Cc2ccccc2)c2ccc(O)cc12` [MDL 103,324, 8-[[5-Hydroxy-1-benzyl-2-[(4-hydroxy)-phenyl]-1H-indol-3-yl]-acetylamino]-octanoic acid methyl-butyl-amide], the “inhibition of estradiol binding to MCF-7 ER” value in data set [3] (doses of 100 or 200 nM) was “did not significantly inhibit”. The “inhibition of estradiol binding to MCF-7 ER” value in data set [3] (typically, at doses of 100 or 200 nM) is reported as “less than 10%”. In data set [4] (replicate 1), the “GAPDH mRNA band intensity” value is 8,300. The “GAPDH mRNA band intensity” value in data set [4] (replicate 2) is 8,118. Further, the IC50 in data set [5] is 8.5 µM and 18 µM. For the same compound, in data set [5] (setting [9]), the inhibition at 2 µM turned out to be 60%, the inhibition at 5 µM came to 68%, the inhibition at 10 µM was determined as 58% and the inhibition at 20 µM amounted to 46%. Moreover, the inhibition at 30 µM in data set [5] (setting [9]) amounted to 50%. This compound returned an IC50 in data set [6] of 18 µM. The compound further displayed an ER/GAPDH mean in data set [7] (30 μM, 24 hr, mean of replicates 1 and 2) of 0.74. For the same compound, in data set [7] (30 μM, 24 hr, replicate 1), the ER/GAPDH stood at 0.61 and the “Estrogen Receptor mRNA band intensity” value was 5,128. In data set [7] (30 μM, 24 hr, replicate 2), the ER/GAPDH came to 0.87 and the “Estrogen Receptor mRNA band intensity” value was 7,077. Moreover, the activity at 30 µM in data set [7] (Homo sapiens, MCF7, 24 h, read-out: ER/GAPDH % Control) came out at 20%.
On to `CC/C(=C(\c1ccccc1)c1ccc(OCCN(C)C)cc1)c1ccccc1` [tamoxifen], for which, in data set [8] (Maass, H., et al., Cancer, 46:2783 (1980)), the “patients who do not respond to tamoxifen treatment despite presence of ERs in the malignant tissue” value was “About 40%”. In addition, the “toxicological problems associated with tamoxifen treatment” value in data set [8] (in vivo) was “tumor flares, vaginal cornification and hypercalciemia”.
